Values after ≈ are worked out from the molar mass of the structure shown. “Also recorded” adds a separate entry of the source. Where a name gives a salt, the structure may show the parent alone. Read-outs that look alike come from different tables or passages of the source. Blank lines part the entries; values can stand above or below the molecule they belong to.
Tests used:
human cancer cells = assay: Viability of human cancer cells at 72 hours post-treatment; format: cell-based; conditions: relative to the potency of ONC201; viability of human cancer cells at 72 hours post-treatment
MV411 AML cells = assay: Cell viability, MV411 AML cells; format: cell-based
MOLM14 AML cells = assay: Cell viability, MOLM14 AML cells; format: cell-based; conditions: Homo sapiens, MOLM-14, 5 nM-5 μM, 72 h, n=3
K562 (CML) = assay: Cell viability, K562; format: cell-based; conditions: Homo sapiens, 5 nM-5 μM, 72 h, n=3
[1] = system: MHH-ES-1 (Ewing's sarcoma); assay: Cell viability, MHH-ES-1; format: cell-based; conditions: Homo sapiens, 5 nM-5 μM, 72 h, n=3
[2] = system: Ewing's sarcoma cell lines; assay: Anti-cancer efficacy in Ewing's sarcoma cell lines; format: cell-based; conditions: 16 Ewing's sarcoma cell lines (FIG. 20)
[3] = system: NCI60 cancer cell line panel; assay: NCI60 cancer cell line panel; format: cell-based; conditions: NCI60 panel (FIG. 16)
[4] = Rat non-GLP oral single dose study; format: in vivo; conditions: rat non-GLP oral single dose study
[5] = system: DRD2 (short and long isoforms); assay: β-arrestin recruitment GPCR reporter assay, DRD2; format: cell-based
[6] = system: Staphylococcus aureus ATCC 29213; assay: MIC by micro-broth dilution, S. aureus ATCC 29213; format: cell-based; conditions: ATCC29213
[7] = system: Staphylococcus aureus ATCC 33591; assay: MIC by micro-broth dilution, S. aureus ATCC 33591; format: cell-based; conditions: ATCC33591
[8] = system: Staphylococcus aureus ATCC 700699; assay: MIC by micro-broth dilution, S. aureus ATCC 700699; format: cell-based; conditions: Staphylococcus aureus, ATCC700699, ATCC 700699 (48 hours)
HFF (Normal Fibroblast) = assay: Cell viability, HFF normal fibroblasts
[9] = system: Staphylococcus aureus ATCC# 6538
[10] = system: Pseudomonas aeruginosa ATCC# 9027; conditions: 1:300 with TSB Mod Dilution; inoculum count 28
[11] = system: Bacillus subtilis ATCC# 6633; conditions: 1:300 with TSB Mod Dilution; inoculum count 52
[12] = system: Candida albicans ATCC# 10231; conditions: 1:300 with TSB Mod Dilution
[13] = system: Aspergillus brasiliensis ATCC# 16404; conditions: 1:300 with TSB Mod Dilution
[14] = molecular target: DRD2 alanine-scan mutation library (Homo sapiens, UniProt P14416, A177S)
[15] = molecular target: DRD2 alanine-scan mutation library (Homo sapiens, UniProt P14416, C107A)
[16] = molecular target: DRD2 alanine-scan mutation library (Homo sapiens, UniProt P14416, C118A)
[17] = molecular target: DRD2 alanine-scan mutation library (Homo sapiens, UniProt P14416, C182A)
[18] = molecular target: DRD2 alanine-scan mutation library (Homo sapiens, UniProt P14416, D114A)
[19] = molecular target: DRD2 alanine-scan mutation library (Homo sapiens, UniProt P14416, D80A)
[20] = molecular target: DRD2 alanine-scan mutation library (Homo sapiens, UniProt P14416, E248A)
[21] = molecular target: DRD2 alanine-scan mutation library (Homo sapiens, UniProt P14416, E95A)
[22] = molecular target: DRD2 alanine-scan mutation library (Homo sapiens, UniProt P14416, F189A)
[23] = molecular target: DRD2 alanine-scan mutation library (Homo sapiens, UniProt P14416, F198A)
[24] = molecular target: DRD2 alanine-scan mutation library (Homo sapiens, UniProt P14416, H393A)
[25] = molecular target: DRD2 alanine-scan mutation library (Homo sapiens, UniProt P14416, I122A)
[26] = molecular target: DRD2 alanine-scan mutation library (Homo sapiens, UniProt P14416, I128A)
[27] = molecular target: DRD2 alanine-scan mutation library (Homo sapiens, UniProt P14416, I184A)
[28] = molecular target: DRD2 alanine-scan mutation library (Homo sapiens, UniProt P14416, I377A)
[29] = molecular target: DRD2 alanine-scan mutation library (Homo sapiens, UniProt P14416, I394A)
[30] = molecular target: DRD2 alanine-scan mutation library (Homo sapiens, UniProt P14416, I397A)
[31] = molecular target: DRD2 alanine-scan mutation library (Homo sapiens, UniProt P14416, L125A)
[32] = molecular target: DRD2 alanine-scan mutation library (Homo sapiens, UniProt P14416, L81A)
[33] = molecular target: DRD2 alanine-scan mutation library (Homo sapiens, UniProt P14416, N23A)
[34] = molecular target: DRD2 alanine-scan mutation library (Homo sapiens, UniProt P14416, R132A)
[35] = molecular target: DRD2 alanine-scan mutation library (Homo sapiens, UniProt P14416, S121A)
[36] = molecular target: DRD2 alanine-scan mutation library (Homo sapiens, UniProt P14416, S193A)
[37] = molecular target: DRD2 alanine-scan mutation library (Homo sapiens, UniProt P14416, S197A)
[38] = molecular target: DRD2 alanine-scan mutation library (Homo sapiens, UniProt P14416, S419A)
[39] = molecular target: DRD2 alanine-scan mutation library (Homo sapiens, UniProt P14416, S7A)
[40] = molecular target: DRD2 alanine-scan mutation library (Homo sapiens, UniProt P14416, T119A)
[41] = molecular target: DRD2 alanine-scan mutation library (Homo sapiens, UniProt P14416, T165A)
[42] = molecular target: DRD2 alanine-scan mutation library (Homo sapiens, UniProt P14416, T205A)
[43] = molecular target: DRD2 alanine-scan mutation library (Homo sapiens, UniProt P14416, V190A)
[44] = molecular target: DRD2 alanine-scan mutation library (Homo sapiens, UniProt P14416, V196A)
[45] = molecular target: DRD2 alanine-scan mutation library (Homo sapiens, UniProt P14416, V83A)
[46] = molecular target: DRD2 alanine-scan mutation library (Homo sapiens, UniProt P14416, V91A)
[47] = molecular target: DRD2 alanine-scan mutation library (Homo sapiens, UniProt P14416, W386A)
[48] = molecular target: DRD2 alanine-scan mutation library (Homo sapiens, UniProt P14416, Y192A)
[49] = molecular target: DRD2 alanine-scan mutation library (Homo sapiens, UniProt P14416, Y199A)
[50] = molecular target: DRD2 alanine-scan mutation library (Homo sapiens, UniProt P14416, Y416A)

DRD2 alanine-scan mutation library (Homo sapiens, UniProt P14416, R132A), sequence (P14416 whole entry R132A): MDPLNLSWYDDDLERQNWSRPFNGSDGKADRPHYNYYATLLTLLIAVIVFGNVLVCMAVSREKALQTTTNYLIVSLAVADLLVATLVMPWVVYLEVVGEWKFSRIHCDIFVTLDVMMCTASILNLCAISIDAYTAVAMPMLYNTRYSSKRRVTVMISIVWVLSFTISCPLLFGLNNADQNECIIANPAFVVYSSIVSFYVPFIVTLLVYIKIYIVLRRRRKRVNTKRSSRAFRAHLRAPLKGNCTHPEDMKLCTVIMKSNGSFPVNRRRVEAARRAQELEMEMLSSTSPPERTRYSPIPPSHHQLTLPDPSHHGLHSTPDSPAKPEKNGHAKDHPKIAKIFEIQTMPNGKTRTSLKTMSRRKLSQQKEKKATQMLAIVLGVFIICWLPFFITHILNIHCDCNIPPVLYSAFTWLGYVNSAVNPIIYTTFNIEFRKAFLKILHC
DRD2 alanine-scan mutation library (Homo sapiens, UniProt P14416, S419A), sequence (P14416 whole entry S419A): as the sequence (P14416 whole entry R132A) above, with A132R, S419A counted along it
DRD2 alanine-scan mutation library (Homo sapiens, UniProt P14416, I377A), sequence (P14416 whole entry I377A): as the sequence (P14416 whole entry R132A) above, with A132R, I377A counted along it
DRD2 alanine-scan mutation library (Homo sapiens, UniProt P14416, E248A), sequence (P14416 whole entry E248A): as the sequence (P14416 whole entry R132A) above, with A132R, E248A counted along it
DRD2 alanine-scan mutation library (Homo sapiens, UniProt P14416, F198A), sequence (P14416 whole entry F198A): as the sequence (P14416 whole entry R132A) above, with A132R, F198A counted along it
DRD2 alanine-scan mutation library (Homo sapiens, UniProt P14416, L81A), sequence (P14416 whole entry L81A): as the sequence (P14416 whole entry R132A) above, with L81A, A132R counted along it
DRD2 alanine-scan mutation library (Homo sapiens, UniProt P14416, I128A), sequence (P14416 whole entry I128A): as the sequence (P14416 whole entry R132A) above, with I128A, A132R counted along it
DRD2 alanine-scan mutation library (Homo sapiens, UniProt P14416, C107A), sequence (P14416 whole entry C107A): as the sequence (P14416 whole entry R132A) above, with C107A, A132R counted along it
DRD2 alanine-scan mutation library (Homo sapiens, UniProt P14416, T119A), sequence (P14416 whole entry T119A): as the sequence (P14416 whole entry R132A) above, with T119A, A132R counted along it
DRD2 alanine-scan mutation library (Homo sapiens, UniProt P14416, V83A), sequence (P14416 whole entry V83A): as the sequence (P14416 whole entry R132A) above, with V83A, A132R counted along it
DRD2 alanine-scan mutation library (Homo sapiens, UniProt P14416, F189A), sequence (P14416 whole entry F189A): as the sequence (P14416 whole entry R132A) above, with A132R, F189A counted along it

SMILES: O=C1C2=C(CCN(Cc3ccccc3)C2)N2CCN=C2N1Cc1ccc(F)cc1F [ONC206]
Relative Potency* (human cancer cells): A (A Indicates a potency increase of >2-fold of ONC201)
IC50 (MV411 AML cells; Homo sapiens, MV4-11, MV411, 5 nM-5 μM, 72 h, n=3): 200 nM
fold improvement compared to ONC201 in in vitro potency (MV411 AML cells; cell lines of Table 12): up to 20 fold
IC50 (MOLM14 AML cells): 270 nM
IC50 (K562 (CML)): 220 nM
IC50 [1]: 610 nM
anti-cancer efficacy [2]: nanomolar range in 14 out of 16; also recorded: superior efficacy compared to ONC201 in all cell lines
anti-cancer efficacy across tumor types [3]: demonstrated anti-cancer efficacy
NOAEL [4]: 125 mg/kg
GPCR activity, DRD2 [5]: improved DRD2 antagonism
MIC ([6]; wild type Staphylococcus aureus (ATCC 29213), read-out: MIC): 6.25 µg/mL (≈ 15.3 µM)
MIC90 ([6]; Staphylococcus aureus, ATCC 29213, 24 hours, read-out: MIC90): 6.25 µg/mL (≈ 15.3 µM)
MIC ([6]; Staphylococcus aureus, ATCC 29213, 24 hours, read-out: MIC95): 6.25 µg/mL (≈ 15.3 µM)
MIC99 ([6]; Staphylococcus aureus, ATCC 29213, 24 hours, read-out: MIC99): 6.25 µg/mL (≈ 15.3 µM)
MIC ([6]; Staphylococcus aureus, ATCC 29213, 24 hours, read-out: MIC, Visual): 6.25 µg/mL (≈ 15.3 µM)
MIC ([7]; Staphylococcus aureus (ATCC 33591), methicillin resistant, read-out: MIC): 12.5 µg/mL (≈ 30.6 µM)
MIC90 ([7]; Staphylococcus aureus, ATCC 33591, 24 hours, read-out: MIC90): 12.5 µg/mL (≈ 30.6 µM)
MIC ([7]; Staphylococcus aureus, ATCC 33591, 24 hours, read-out: MIC95): 25 µg/mL (≈ 61.2 µM)
MIC99 ([7]; Staphylococcus aureus, ATCC 33591, 24 hours, read-out: MIC99): > 100 µg/mL
MIC ([7]; Staphylococcus aureus, ATCC 33591, 24 hours, read-out: MIC, Visual): 12.5 µg/mL (≈ 30.6 µM)
MIC90 ([8]; read-out: MIC90): 12.5 µg/mL (≈ 30.6 µM)
MIC ([8]; read-out: MIC95): 12.5 µg/mL (≈ 30.6 µM)
MIC99 ([8]; read-out: MIC99): 25 µg/mL (≈ 61.2 µM)
MIC ([8]; read-out: MIC, Visual): 12.5 µg/mL (≈ 30.6 µM)
IC50 (HFF (Normal Fibroblast); Homo sapiens, Fibroblast, 72 h): > 5000 nM
in vitro toxicity to normal cells (HFF (Normal Fibroblast); Table 12): no in vitro toxicity to normal cells at therapeutic doses

SMILES: Cc1ccccc1CN1C(=O)C2=C(CCN(Cc3ccccc3)C2)N2CCN=C12 [ONC201 dihydrochloride]
Indicator Organisms Count, Sa [9]: 0
Indicator Organisms Count, Pa [10]: 24
Indicator Organisms Count, Bs [11]: 48
Indicator Organisms Count, Ca (TSA) ([12]; inoculum count 48): 51
Indicator Organisms Count, CA (SDA) ([12]; inoculum count 52): 46
Indicator Organisms Count, Ab (SDA) ([13]; inoculum count 20): 19
Indicator Organisms Count, Ab (TSA) ([13]; inoculum count 21): 18

Calcium Flux as a % of flux with WT DRD2 (100), Dopamine 1 nM [14]: 85%
Calcium Flux % WT [15]: 20 % WT
Calcium Flux % WT [16]: 14 % WT
Calcium Flux % WT [17]: 0 % WT
Calcium Flux % WT [18]: 4 % WT
Calcium Flux % WT [19]: 3 % WT
Calcium Flux % WT [20]: 19 % WT
Calcium Flux as a % of flux with WT DRD2 (100), Dopamine 1 nM [21]: 123%
Calcium Flux % WT [22]: 22 % WT
Calcium Flux % WT [23]: 10 % WT
Calcium Flux % WT [24]: 4 % WT
Calcium Flux % WT [25]: 23 % WT
Calcium Flux % WT [26]: 27 % WT
Calcium Flux % WT [27]: 0 % WT
Calcium Flux % WT [28]: 11 % WT
Calcium Flux % WT [29]: 16 % WT
Calcium Flux as a % of flux with WT DRD2 (100), Dopamine 1 nM [30]: 105%
Calcium Flux % WT [31]: 25 % WT
Calcium Flux as a % of flux with WT DRD2 (100), Dopamine 1 nM [32]: 83%
Calcium Flux % WT [33]: 25 % WT
Calcium Flux % WT [34]: 3 % WT
Calcium Flux % WT [35]: 16 % WT
Calcium Flux % WT [36]: 1 % WT
Calcium Flux % WT [37]: 0 % WT
Calcium Flux % WT [38]: 20 % WT
Calcium Flux % WT [39]: 15 % WT
Calcium Flux % WT [40]: 1 % WT
Calcium Flux as a % of flux with WT DRD2 (100), Dopamine 1 nM [41]: 92%
Calcium Flux % WT [42]: 24 % WT
Calcium Flux % WT [43]: 20 % WT
Calcium Flux as a % of flux with WT DRD2 (100), Dopamine 1 nM [44]: 119%
Calcium Flux % WT [45]: 10 % WT
Calcium Flux as a % of flux with WT DRD2 (100), Dopamine 1 nM [46]: 119%
Calcium Flux % WT [47]: 15 % WT
Calcium Flux as a % of flux with WT DRD2 (100), Dopamine 1 nM [48]: 64%
Calcium Flux % WT [49]: 20 % WT
Calcium Flux % WT [50]: 12 % WT
SMILES: NCCc1ccc(O)c(O)c1 [Dopamine, dopamine]

Source: patent publication US11116771B2, “G protein-coupled receptor (GPCR) modulation by imipridones” (Oncoceutics, Inc., priority 2016, dated 2021)
